Laboratory results: patent US20240116951A1, “HETEROCYCLIC COMPOUNDS AND USES THEREOF” (Kumquat Biosciences Inc., priority 2022, published 2024)

Tests used:
Format in all cases: binding
KRAS G12S = target: T1, KRAS G12S (Homo sapiens, UniProt P01116, G12S); experiment: HTRF assay of K-Ras G12S interaction with SOS1 (PPI-HTRF); details: 5 nM KRAS G12S, read-out: PPI-HTRF-5 nM KRAS G12S
T1 construct: made in house; host or cells: E. coli, e.g. BL21 (DE3)
Excerpt: (§1) This assay can be also used to assess a selective inhibition or reduction of signaling output of a mutant Ras protein relative to a wildtype, or relative to a different mutant Ras protein. For example, the equilibrium interaction of wildtype Kras or K-Ras mutant (e.g., wildtype or a mutant thereof including those mentioned in Example 4) with SOS1 (e.g., hSOS1) can be assessed as a proxy or an indication for a subject compound's ability to bind and inhibit Ras protein. HTRF assay detects from (i) a fluorescence resonance energy transfer (FRET) donor (e.g., antiGST-Europium) that is bound to GST-tagged K-Ras mutant to (ii) a FRET acceptor (e.g., anti-6His-XL665) bound to a His-tagged hSOS1.
(§2) The assay buffer can contain ˜5 mM HEPES pH 7.4, ˜150 mM NaCl, ˜1 mM DTT, 0.05% BSA and 0.0025% (v/v) Igepal. A Ras working solution is prepared in an assay buffer containing typically a suitable amount of the protein construct (e.g., GST-tagged K-Ras mutant) and the FRET donor (e.g., antiGST-Eu(K) from Cisbio, France). A SOS1 working solution is prepared in an assay buffer containing suitable amount of the protein construct (e.g., His-hSOS1) and the FRET acceptor (e.g., anti-6His-XL665 from Cisbio, France). A suitable amount of the protein construct will depend on the range of activity or range of IC50 values being detected or under investigation. For detecting IC50 within a range of 500 nM, the protein constructs of the same range of molarity can be utilized. […] A fixed volume of DMSO with or without test compound is transferred into a 384-well plate. Ras working solution is added to all wells of the test plate. SOS1 working solution is added to all wells except for those that are subsequently filled the inhibitor control solution. Upon incubation for about 10 minutes or longer, the fluorescence is measured with a M1000Pro plate reader (Tecan) using HTRF detection (excitation 337 nm, emission 1: 620 nm, emission 2: 665 nm). Compounds are tested in duplicates at different concentrations (for example, 10 μM, 2.5 μM, 0.63 μM, 0.16 μM, 0.04 μM, 0.01 μM test compound). The ratiometric data (i.e., emission 2 divided by emission 1) is used to calculate IC50 values against Ras using GraphPad Prism (GraphPad software). Following this general procedure, samples were tested with or without a subject compound disclosed herein including compounds exemplified in Table 1 to assess their abilities to inhibit a mutant K-Ras relative to another mutant K-Ras or wildtype K-Ras. Signaling output measured in terms of IC50 values can be obtained, a ratio of IC50 against one mutant relative to another mutant can be calculated. For instance, a selective reduction of K-Ras G12D signaling output can be evidenced by a ratio greater than one. In particular, a selective reduction of K-Ras G12D signaling relative to K-Ras WT signaling is evidenced as the ratio of IC50 (against K-Ras WT) to IC50 (against K-Ras G12D) is greater than 1.

KRAS G12D = target: T2, KRAS G12D (Homo sapiens, UniProt P01116, G12D); experiment: HTRF assay of K-Ras G12D interaction with SOS1 (PPI-HTRF); details: HTRF, 5 nM KRAS G12D; read-out: PPI-HTRF-5 nM KRAS G12D
T2 construct: made in house; host or cells: E. coli, e.g. BL21 (DE3)
T2 sequence (P01116 1-188 isoform P01116-2 G12D): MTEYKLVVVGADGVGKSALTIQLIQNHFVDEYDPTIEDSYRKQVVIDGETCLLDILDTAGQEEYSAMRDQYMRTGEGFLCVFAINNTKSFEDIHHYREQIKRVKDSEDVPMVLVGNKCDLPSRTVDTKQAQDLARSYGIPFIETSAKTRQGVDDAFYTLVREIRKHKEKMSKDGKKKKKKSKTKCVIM
Excerpt: as §1, §2

KRAS WT = target: T3, KRAS WT (Homo sapiens, UniProt P01116); experiment: HTRF assay of wildtype K-Ras interaction with SOS1 (PPI-HTRF); details: HTRF, 5 nM KRAS WT; read-out: PPI-HTRF-5 nM KRAS WT
T3 construct: made in house; host or cells: E. coli, e.g. BL21 (DE3)
T3 sequence (P01116 1-188 isoform P01116-2): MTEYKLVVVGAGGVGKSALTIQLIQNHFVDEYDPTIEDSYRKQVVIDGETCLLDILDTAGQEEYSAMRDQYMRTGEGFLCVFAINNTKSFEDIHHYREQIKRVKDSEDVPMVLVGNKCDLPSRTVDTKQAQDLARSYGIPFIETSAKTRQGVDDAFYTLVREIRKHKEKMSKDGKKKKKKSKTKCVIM
Excerpt: as §1, §2

T1 sequence (P01116 1-188 isoform P01116-2 G12S): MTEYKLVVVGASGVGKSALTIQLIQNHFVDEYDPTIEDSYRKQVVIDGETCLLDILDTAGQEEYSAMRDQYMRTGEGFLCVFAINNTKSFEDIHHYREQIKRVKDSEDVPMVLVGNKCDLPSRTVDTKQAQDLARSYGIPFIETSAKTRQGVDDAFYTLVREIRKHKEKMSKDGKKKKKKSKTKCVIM

SMILES | IC50 (KRAS G12S) [µM] | IC50 (KRAS G12D) [µM] | IC50 (KRAS WT) [µM]
N#Cc1c(NC(=O)C2CC2(F)F)sc2c(F)ccc(-c3c(F)c4nc(OC[C@@]56CCCN5C[C@H](F)C6)nc(N5CCC6(CCN6C(=O)C6CC6(F)F)C5)c4c(=O)n3C3CC3)c12 (stereo partly drawn) [Compound 343, N-(3-cyano-4-(6-cyclopropyl-4-(1-(2,2-difluorocyclopropane-1-carbonyl)-1,6-diazaspiro[3.4]octan-6-yl)-8-fluoro-2-(((2R,7aS)-2-fluorotetrahydro-1H-pyrrolizin-7a(5H)-yl)methoxy)-5-oxo-5,6-dihydropyrido[4,3-d]pyrimidin-7-yl)-7-fluorobenzo[b]thiophen-2-yl)-2,2-difluorocyclopropane-1-carboxamide] | < 5 | < 5 | < 5
N#Cc1c(N)sc2c(F)ccc(-c3c(Cl)cc4c(N5CCCCC6(CCCN6C(=O)n6cncn6)C5)nc(OC[C@@]56CCCN5C[C@H](F)C6)nc4c3F)c12 (stereo partly drawn) [Compound 231, 4-(4-(1-(1H-1,2,4-triazole-1-carbonyl)-1,7-diazaspiro[4.6]undecan-7-yl)-6-chloro-8-fluoro-2-(((2R,7aS)-2-fluorotetrahydro-1H-pyrrolizin-7a(5H)-yl)methoxy)quinazolin-7-yl)-2-amino-7-fluorobenzo[b]thiophene-3-carbonitrile] | < 5 | – | –
C[C@H](Oc1nc(N2CC[C@@]3(CCN3C(=O)n3cncn3)C2)c2cc(Cl)c(-c3ccc(F)c4sc(N)c(C#N)c34)c(F)c2n1)[C@@H]1CCCN1C (single isomer, unassigned) [Compound 301] | < 5 | – | –
N#Cc1c(N)sc2c(F)ccc(-c3c(Cl)cc4c(N5CCC6(CCN6C(=O)n6cncn6)C5)nc(OC[C@@]56CCCN5C[C@H](F)C6)nc4c3F)c12 (stereo partly drawn) [Compound 272, 4-(4-(1-(1H-1,2,4-triazole-1-carbonyl)-1,6-diazaspiro[3.4]octan-6-yl)-6-chloro-8-fluoro-2-(((2R,7aS)-2-fluorotetrahydro-1H-pyrrolizin-7a(5H)-yl)methoxy)quinazolin-7-yl)-2-amino-7-fluorobenzo[b]thiophene-3-carbonitrile] | < 5 | – | –
Cc1ncn(C(=O)N2CC[C@@]23CCN(c2nc(OC[C@@]45CCCN4C[C@H](F)C5)nc4c(F)c(-c5ccc(F)c6sc(N)c(C#N)c56)c(Cl)cc24)C3)n1 [Compound 339, 2-amino-4-(6-chloro-8-fluoro-2-(((2R,7aS)-2-fluorotetrahydro-1H-pyrrolizin-7a(5H)-yl)methoxy)-4-((R)-1-(3-methyl-1H-1,2,4-triazole-1-carbonyl)-1,6-diazaspiro[3.4]octan-6-yl)quinazolin-7-yl)-7-fluorobenzo[b]thiophene-3-carbonitrile] | < 5 | – | –
N#CCC1CN(c2nc(OC[C@@]34CCCN3C[C@H](F)C4)nc3c(F)c(-c4ccc(F)c5sc(N)c(C#N)c45)c(Cl)cc23)CC12CCN2C(=O)n1cnc(C(F)F)n1 (stereo partly drawn) [Compound 330, (4R)-2-amino-4-(6-chloro-4-(8-(cyanomethyl)-1-(3-(difluoromethyl)-1H-1,2,4-triazole-1-carbonyl)-1,6-diazaspiro[3.4]octan-6-yl)-8-fluoro-2-(((2R,7aS)-2-fluorotetrahydro-1H-pyrrolizin-7a(5H)-yl)methoxy)quinazolin-7-yl)-7-fluorobenzo[b]thiophene-3-carbonitrile] | < 5 | – | –
N#Cc1c(N)sc2c(F)ccc(-c3c(Cl)cc4c(N5CC6(CCN6C(=O)n6cncn6)CC5COC(F)F)nc(OC[C@@]56CCCN5C[C@H](F)C6)nc4c3F)c12 (stereo partly drawn) [Compound 348, 2-amino-4-(6-chloro-4-(7-((difluoromethoxy)methyl)-1-(1H-1,2,4-triazole-1-carbonyl)-1,6-diazaspiro[3.4]octan-6-yl)-8-fluoro-2-(((2R,7aS)-2-fluorotetrahydro-1H-pyrrolizin-7a(5H)-yl)methoxy)quinazolin-7-yl)-7-fluorobenzo[b]thiophene-3-carbonitrile] | < 5 | – | –
N#Cc1c(N)sc2c(F)ccc(-c3c(Cl)cc4c(N5CC[C@@]6(CCN6C(=O)n6cncn6)C5)nc(OC[C@@]56CCCN5C[C@H](F)C6)nc4c3F)c12 (single isomer, unassigned) [Compound 247] | < 5 | – | –
Cc1ncn(C(=O)N2CC[C@]23CCN(c2nc(OC[C@@]45CCCN4C[C@H](F)C5)nc4c(F)c(-c5ccc(F)c6sc(N)c(C#N)c56)c(Cl)cc24)C3)n1 [Compound 250, 2-amino-4-(6-chloro-8-fluoro-2-(((2R,7aS)-2-fluorotetrahydro-1H-pyrrolizin-7a(5H)-yl)methoxy)-4-((S)-1-(3-methyl-1H-1,2,4-triazole-1-carbonyl)-1,6-diazaspiro[3.4]octan-6-yl)quinazolin-7-yl)-7-fluorobenzo[b]thiophene-3-carbonitrile] | < 5 | – | –

Further lines, results first:

IC50 (KRAS G12S) [µM] | IC50 (KRAS G12D) [µM] | IC50 (KRAS WT) [µM] | SMILES
< 5 | – | – | N#Cc1c(N)sc2c(F)ccc(-c3c(Cl)cc4c(N5CCCC6(CCCN6)C5)nc(OC[C@@]56CCCN5C[C@H](F)C6)nc4c3F)c12 (stereo partly drawn) [Compound 252, 2-amino-4-(6-chloro-8-fluoro-2-(((2R,7aS)-2-fluorotetrahydro-1H-pyrrolizin-7a(5H)-yl)methoxy)-4-(1,7-diazaspiro[4.5]decan-7-yl)quinazolin-7-yl)-7-fluorobenzo[b]thiophene-3-carbonitrile]
< 5 | – | – | N#Cc1c(N)sc2c(F)ccc(-c3c(Cl)cc4c(N5CCCC6(CCN6)C5)nc(OC[C@@]56CCCN5C[C@H](F)C6)nc4c3F)c12 (stereo partly drawn) [Compound 260, 2-amino-4-(6-chloro-8-fluoro-2-(((2R,7aS)-2-fluorotetrahydro-1H-pyrrolizin-7a(5H)-yl)methoxy)-4-(1,6-diazaspiro[3.5]nonan-6-yl)quinazolin-7-yl)-7-fluorobenzo[b]thiophene-3-carbonitrile]
< 5 | – | – | Nc1nc2c(-c3c(Cl)cc4c(N5CCCC6(CCN6)C5)nc(OC[C@@]56CCCN5C[C@H](F)C6)nc4c3F)ccc(F)c2s1 (stereo partly drawn) [Compound 209, 4-(6-chloro-8-fluoro-2-(((2R,7aS)-2-fluorotetrahydro-1H-pyrrolizin-7a(5H)-yl)methoxy)-4-(1,6-diazaspiro[3.5]nonan-6-yl)quinazolin-7-yl)-7-fluorobenzo[d]thiazol-2-amine]
> 5 | < 5 | – | Nc1nc2c(-c3c(Cl)cc4c(N5CC6(CNCCN6)C5)nc(OC[C@@]56CCCN5C[C@H](F)C6)nc4c3F)ccc(F)c2s1 [Compound 251, 4-(6-chloro-8-fluoro-2-(((2R,7aS)-2-fluorotetrahydro-1H-pyrrolizin-7a(5H)-yl)methoxy)-4-(2,5,8-triazaspiro[3.5]nonan-2-yl)quinazolin-7-yl)-7-fluorobenzo[d]thiazol-2-amine]
< 5 | – | – | N#Cc1c(N)sc2c(F)ccc(-c3c(Cl)cc4c(N5CCCC6(CCCN6C(=O)n6cncn6)C5)nc(OC[C@@]56CCCN5C[C@H](F)C6)nc4c3F)c12 (stereo partly drawn) [Compound 246, 4-(4-(1-(1H-1,2,4-triazole-1-carbonyl)-1,7-diazaspiro[4.5]decan-7-yl)-6-chloro-8-fluoro-2-(((2R,7aS)-2-fluorotetrahydro-1H-pyrrolizin-7a(5H)-yl)methoxy)quinazolin-7-yl)-2-amino-7-fluorobenzo[b]thiophene-3-carbonitrile]
– | < 5 | < 5 | Nc1nc2c(-c3c(Cl)cc4c(N5CC6(CCCCN6)C5)nc(OCC56CCCN5C[C@H](F)C6)nc4c3F)ccc(F)c2s1 (stereo partly drawn) [Compound 220, 4-(6-chloro-8-fluoro-2-(((2R)-2-fluorotetrahydro-1H-pyrrolizin-7a(5H)-yl)methoxy)-4-(2,5-diazaspiro[3.5]nonan-2-yl)quinazolin-7-yl)-7-fluorobenzo[d]thiazol-2-amine]
